Results on ten molecules are retold here after patent US20020076412A1, “METHODS FOR MODULATING THE IMMUNE SYSTEM” (priority 1987, published 2002).

The subject of one assay is EAE (RAT). Briefly: Ability of peptide mixed in CFA to cause EAE. In kind it is in vivo. The conditions noted are these: rats with EAE / rats immunized with the peptide alone in CFA. Here is the method:
The peptides were tested for their ability to cause EAE when mixed in CFA. […] It was seen that Ala4, Ala6, Ala7, and Ala8 are poor binders to I-E, implying that these residues 4F,6N,7I, and 8V are critical in MHC binding. […] Despite their inability to bind well to I-E, peptides ala6 and ala8 block the development of EAE when mixed with native peptide in a 5:1 molar ratio with CFA (0/6 sick with native plus ala6, 2/6 with native plus ala8, compared to 11/12 with native peptide alone). These competitor peptides Ala6 and Ala8, though poor I-E binders can apparently compete with native peptide and antagonize the T-cell receptor.

The next assay deals with 87-99 T-cell line. Nature of the assay: Proliferation of encephalitogenic T-cell line raised against native peptide (87-99). The format is cell-based, rat. The conditions noted are these: stimulation of T-cell line raised against native 87-99, grades negative to 4+, no key printed. As to the method:
As noted above, candidate peptide analogues are first tested for their property of causing or inhibiting proliferation of T-cell lines. In the proliferation assay, MBP reactive T-cell lines may be used as target cells. T-cell lines are established from lymph nodes taken from rats injected with MBP. Lymph node cells are isolated and cultured for 5 to 8 days with MBP and IL-2 as a source of T-cell growth factors. Viable cells are recovered and a second round of stimulation is performed with MBP and irradiated splenocytes as a source of growth factors. After 5 to 6 passages in this manner, the proliferative potential of the cell lines are determined. MBP-reactive lines are used in the proliferation assay. In this assay, T-cell lines are cultured for three days with various concentrations of peptide analogues and irradiated, autologous splenocytes. After three days, 0.5-1.0 μCi of [^3H]-thymidine is added for 12-16 hours. Cultures are harvested and incorporated counts determined. Mean CPM and standard error of the mean are calculated from triplicate cultures.
Development of MBP-specific T-cell lines in the rat: T-cell lines are selected from LN or SC (spinal cords) of rats immunized with guinea pig myelin basic protein or with MBP peptide (200 μg) in CFA. Supernatants from ConA-stimulated Lewis rat splenocytes are used as the source of IL-2 to expand Ag-stimulated T-cells.
Proliferation Assay: Proliferative responses were determined as described previously (Zamvil, et al., Nature 317:355, 1985). 1×10^4 T-cells were cultured with 5×10^5 X-irradiated (3,000 rad) PL/J splenic APC in 0.2 ml of culture media in 96 well flat-bottomed microtiter plates (Falcon, 3072). Peptides were added to culture giving the final concentrations indicated. At 48 hours incubation, each well was pulsed with 1 μCi ^3H-thymidine and harvested 16 hours later. The mean c.p.m. thymidine incorporation was calculated for triplicate cultures. Standard deviations from replicate cultures were within 10% mean value. Proliferation assays were performed in 96-well microtiter plates. Briefly, 2×10^4 T-cells and 10^6 irradiated thymocytes/well were incubated with stimulation medium only, Con A, or antigen. The cultures were harvested onto glass fiber filters and TdR uptake was assessed by liquid scintillation. Mean cpm were calculated from triplicate wells. In some experiments, competitor peptides, or anti I-A (OX-6) or anti-I-E antibodies (OX-17) were used to evaluate which MHC molecules were used to restrict the T-cell response, or to determine whether peptides could antagonize stimulation by the native peptide.

Another assay has as its system I-E. Nature of the assay: MHC I-E binding of substituted MBP 87-99 peptides. To be noted: for IC50: read-out: (M*C) IC50 I-E Binding. Set-up: species or system rat. From the text:
A set of substituted peptides based on the sequence VHFFKNIVTPRT (Seq. ID No. 39), which is identical in rats, mice and human myelin basic protein (MBP), and corresponds to the I-E restricted epitope MBP 87-99 in the rat was produced. The peptides are shown in Table 1 (Seq. ID Nos. 39 to 52 respectively) MHC binding was measure say described in Smilek et al, 1991, Gautam et al 1992a&b.

The subject of another assay is EAE. Nature of the assay: Competition with Ala6 and Ala5 for prevention of EAE with MBP (Table 3). In kind it is in vivo, mice. Here is the method:
Incidence of EAE was expressed as number of mice with clinical EAE/number of mice immunized. For the induction of EAE, MBP peptide was dissolved in phosphate buffered saline (PBS) and emulsified with complete Freund's adjuvant (CFA) in a 1:1 mixture of PBS and CFA. Mice were injected with 0.2 ml emulsion at the base of the tail. On the same day and 48 h later, pertussis toxin (List Chemicals, Campbell, Calif.) was injected intravenously. Mice were examined daily for signs of EAE. For prevention of EAE, animals were immunized with MBP (0.2 mg), or in a mixture with the competitor peptide (1 mg).

The structures appear in SMILES notation. Values joined by “and” are separate entries in the source; they are usually repeats but may differ in a detail not shown here. Equal entries are not always repeated. “Also recorded” adds a separate entry of the source. Where only a bound is given, the exact number is not on record here.

For orientation: IC50 means the midpoint of a concentration-inhibition curve.

For the molecule `CC[C@H](C)[C@H](NC(=O)[C@H](CC(N)=O)NC(=O)[C@H](CCCCN)NC(=O)[C@H](Cc1ccccc1)NC(=O)[C@H](Cc1ccccc1)NC(=O)[C@H](Cc1c[nH]cn1)NC(=O)[C@@H](N)C(C)C)C(=O)N[C@H](C(=O)N[C@@H](C)C(=O)N1CCC[C@H]1C(=O)N[C@@H](CCCNC(=N)N)C(=O)N[C@H](C(=O)N1CCC[C@H]1C(=O)O)[C@@H](C)O)C(C)C` [Ala 9], the “EAE (RAT)” value with EAE (RAT) was 1/6; with EAE (RAT) (listed as Ala9) it was 1/6 and nonencephalitogenic. Moreover, the values for the Prolif. entry with 87-99 T-cell line and in the assay with 87-99 T-cell line (listed as Ala9) were “negative” and “weak stimulators”, respectively.

Take `CC[C@H](C)[C@H](NC(=O)[C@H](CC(N)=O)NC(=O)[C@H](CCCCN)NC(=O)[C@H](Cc1ccccc1)NC(=O)[C@H](Cc1ccccc1)NC(=O)[C@H](Cc1c[nH]cn1)NC(=O)[C@H](C)N)C(=O)N[C@H](C(=O)N[C@H](C(=O)N1CCC[C@H]1C(=O)N[C@@H](CCCNC(=N)N)C(=O)N[C@H](C(=O)N1CCC[C@H]1C(=O)O)[C@@H](C)O)[C@@H](C)O)C(C)C` [Ala 1]: the “EAE (RAT)” value in the assay with EAE (RAT) is recorded as 6/6.

As for `CC[C@H](C)[C@H](NC(=O)[C@H](CC(N)=O)NC(=O)[C@H](CCCCN)NC(=O)[C@H](Cc1ccccc1)NC(=O)[C@H](Cc1ccccc1)NC(=O)[C@H](Cc1c[nH]cn1)NC(=O)[C@@H](N)C(C)C)C(=O)N[C@H](C(=O)N[C@H](C(=O)N1CCC[C@H]1C(=O)N[C@@H](CCCNC(=N)N)C(=O)N[C@@H](C)C(=O)N1CCC[C@H]1C(=O)O)[C@@H](C)O)C(C)C` [Ala 12], the “EAE (RAT)” value with EAE (RAT) was 6/6.

Consider `CC[C@H](C)[C@H](NC(=O)[C@H](CC(N)=O)NC(=O)[C@H](CCCCN)NC(=O)[C@H](C)NC(=O)[C@H](Cc1ccccc1)NC(=O)[C@H](Cc1c[nH]cn1)NC(=O)[C@@H](N)C(C)C)C(=O)N[C@H](C(=O)N[C@H](C(=O)N1CCC[C@H]1C(=O)N[C@@H](CCCNC(=N)N)C(=O)N[C@H](C(=O)N1CCC[C@H]1C(=O)O)[C@@H](C)O)[C@@H](C)O)C(C)C` [Ala 4], for which the “binding to I-E / MHC (in words)” value in the assay with I-E is listed as “poor binders”. In addition, the IC50 on I-E is more than 200 µM. The “EAE (RAT)” value in the assay with EAE (RAT) is on record as 0/6; in the assay on EAE (RAT) (listed as Ala4), “incapable of causing EAE; also recorded: does not cause EAE”. The Prolif. result in the assay on 87-99 T-cell line is “negative”; in the assay with 87-99 T-cell line (listed as Ala4), “does not stimulate”.

For `CC[C@H](C)[C@H](NC(=O)[C@H](CC(N)=O)NC(=O)[C@H](CCCCN)NC(=O)[C@H](Cc1ccccc1)NC(=O)[C@H](Cc1ccccc1)NC(=O)[C@H](Cc1c[nH]cn1)NC(=O)[C@@H](N)C(C)C)C(=O)N[C@H](C(=O)N[C@H](C(=O)N[C@@H](C)C(=O)N[C@@H](CCCNC(=N)N)C(=O)N[C@H](C(=O)N1CCC[C@H]1C(=O)O)[C@@H](C)O)[C@@H](C)O)C(C)C` [Ala 10], the “EAE (RAT)” value with EAE (RAT) was “incapable of causing EAE and nonencephalitogenic and 0/6”.

On to `CC[C@H](C)[C@H](NC(=O)[C@H](CC(N)=O)NC(=O)[C@H](CCCCN)NC(=O)[C@H](Cc1ccccc1)NC(=O)[C@H](Cc1ccccc1)NC(=O)[C@H](Cc1c[nH]cn1)NC(=O)[C@@H](N)C(C)C)C(=O)N[C@H](C(=O)N[C@H](C(=O)N1CCC[C@H]1C(=O)N[C@@H](C)C(=O)N[C@H](C(=O)N1CCC[C@H]1C(=O)O)[C@@H](C)O)[C@@H](C)O)C(C)C` [Ala 11], for which the IC50 on I-E was 20 µM. The “EAE (RAT)” value in the assay with EAE (RAT) is 4/6. The Prolif. result in the assay with 87-99 T-cell line was “negative”.

In the case of `CC[C@H](C)[C@H](NC(=O)[C@H](CC(N)=O)NC(=O)[C@H](CCCCN)NC(=O)[C@H](Cc1ccccc1)NC(=O)[C@H](Cc1ccccc1)NC(=O)[C@H](Cc1c[nH]cn1)NC(=O)[C@@H](N)C(C)C)C(=O)N[C@H](C(=O)N[C@H](C(=O)N1CCC[C@H]1C(=O)N[C@@H](CCCNC(=N)N)C(=O)N[C@H](C(=O)N[C@@H](C)C(=O)O)[C@@H](C)O)[C@@H](C)O)C(C)C` [Ala 13], the IC50 on I-E stood at 10 µM. Also, the “EAE (RAT)” value with EAE (RAT) was 3/6.

For the molecule `CC[C@H](C)[C@H](NC(=O)[C@H](CC(N)=O)NC(=O)[C@H](CCCCN)NC(=O)[C@H](Cc1ccccc1)NC(=O)[C@H](Cc1ccccc1)NC(=O)[C@H](C)NC(=O)[C@@H](N)C(C)C)C(=O)N[C@H](C(=O)N[C@H](C(=O)N1CCC[C@H]1C(=O)N[C@@H](CCCNC(=N)N)C(=O)N[C@H](C(=O)N1CCC[C@H]1C(=O)O)[C@@H](C)O)[C@@H](C)O)C(C)C` [Ala 2], the “EAE (RAT)” value in the assay on EAE (RAT) is 6/6.

On to `CC[C@H](C)[C@H](NC(=O)[C@H](CC(N)=O)NC(=O)[C@H](C)NC(=O)[C@H](Cc1ccccc1)NC(=O)[C@H](Cc1ccccc1)NC(=O)[C@H](Cc1c[nH]cn1)NC(=O)[C@@H](N)C(C)C)C(=O)N[C@H](C(=O)N[C@H](C(=O)N1CCC[C@H]1C(=O)N[C@@H](CCCNC(=N)N)C(=O)N[C@H](C(=O)N1CCC[C@H]1C(=O)O)[C@@H](C)O)[C@@H](C)O)C(C)C` [Ala 5], for which the “EAE (RAT)” value in the assay on EAE (RAT) is 0/6; in the assay with EAE (RAT) (listed as Ala5), “incapable of causing EAE”. Also, the Prolif. result in the assay with 87-99 T-cell line is recorded as “negative”. Moreover, the “Incidence of EAE” value with EAE (native MBP peptide 0.2 mg mixed with competitor peptide 1 mg) is on record as “had a preventative effect on EAE”; in the assay with EAE (native MBP peptide 0.2 mg mixed with competitor peptide 1 mg, listed as ala 5), 2/6; in the assay with EAE (peptide alone 0.2 mg in CFA, number with clinical EAE/number immunized), 0/6.

Regarding `CC[C@H](C)[C@H](NC(=O)[C@H](CC(N)=O)NC(=O)[C@H](CCCCN)NC(=O)[C@H](Cc1ccccc1)NC(=O)[C@H](C)NC(=O)[C@H](Cc1c[nH]cn1)NC(=O)[C@@H](N)C(C)C)C(=O)N[C@H](C(=O)N[C@H](C(=O)N1CCC[C@H]1C(=O)N[C@@H](CCCNC(=N)N)C(=O)N[C@H](C(=O)N1CCC[C@H]1C(=O)O)[C@@H](C)O)[C@@H](C)O)C(C)C` [Ala 3], in the assay on EAE (RAT), the “EAE (RAT)” value is on record as 6/6.
